Source: the CombiSolv-Exp solvation set (Vermeire and Green 2021)

Assay: solvent given as SMILES

CCCCCCCC
Conditions | solvation free energy, 298 K [kcal/mol]
in Brc1ccccc1 | -5.05
in C1CCCCC1 | -5.54
in C1CCOC1 | -5.32
in C1COCCO1 | -4.49
in C=CCCCC | -5.39
in C=CCCCCCC | -5.28
in C=CCCCCCCCC | -5.23
in CC1COC(=O)O1 | -3.01
in CC#N | -3.63
in CC(=O)N(C)C | -3.96
in CC(=O)O | -3.96
in CC(=O)c1ccccc1 | -4.29
in CC(C)(C)O | -4.62
in CC(C)=O | -4.41
in CC(C)CC(C)(C)C | -5.32
in CC(C)CCCC(C)CCCC(C)CCCCC(C)CCCC(C)CCCC(C)C | -4.83
in CC(C)CCO | -4.61
in CC(C)O | -4.4
in CC(C)OC(C)C | -5.29
in CC(Cl)Cl | -4.66
in CC(O)CO | -2.84
in CCBr | -5.39
in CCC(C)(C)OC | -5.28
in CCC(C)=O | -4.69
in CCCC#N | -4.33
in CCCC(=O)OCC | -4.94
in CCCC(C)=O | -4.81
in CCCCC | -5.43
in CCCCC(CC)COC(=O)CCCCC(=O)OCC(CC)CCCC | -4.69
in CCCCC(CC)COC(=O)c1ccccc1C(=O)OCC(CC)CCCC | -4.43
in CCCCCC | -5.42
in CCCCCC(C)=O | -4.83
in CCCCCCC | -5.37
in CCCCCCCCC | -5.23
in CCCCCCCCC=CCCCCCCCC(=O)OCC(COC(=O)CCCCCCCC=CCCCCCCCC)OC(=O)CCCCCCCC=CCCCCCCCC | -4.75
in CCCCCCCCCC | -5.2
in CCCCCCCCCCCC | -5.11
in CCCCCCCCCCCCCCCC | -5.01
in CCCCCCCCCCCCO | -4.65
in CCCCCCCCCCO | -4.53
in CCCCCCCCO | -4.62
in CCCCCCOC(C)=O | -4.92
in CCCCCO | -4.62
in CCCCO | -4.49
in CCCCOC(=O)c1ccccc1C(=O)OCCCC | -4.5
in CCCCOC(C)=O | -4.85
in CCCCOCCCC | -5.25
in CCCO | -4.41
in CCN1CCCC1=O | -4.09
in CCN(CC)C(C)=O | -4.35
in CCN(CC)CC | -5.5
in CCNC(C)=O | -4.09
in CCNC=O | -3.79
in CCO | -4.3
in CCOC(=O)c1ccccc1C(=O)OCC | -3.95
in CCOC(C)=O | -4.71
in CCOCC | -5.41
in CCOCCOCCOCC | -4.65
in CCOc1ccccc1 | -4.77
in CN1CCCC1=O | -3.77
in CN1CCCCC1=O | -4.02
in CN(C)C=O | -3.75
in CN(C)P(=O)(N(C)C)N(C)C | -4.26
in CNC=O | -3.34
in CO | -3.86
in COC(C)=O | -4.49
in COCCO | -3.76
in COCCOCCOCCOCCOC | -4.01
in COc1ccccc1 | -4.7
in CS(C)=O | -2.79
in Cc1ccc(C)cc1 | -5.28
in Cc1cccc(C)n1 | -4.92
in Cc1cccc(O)c1 | -4.08
in Cc1ccccc1 | -5.29
in Cc1ccccn1 | -4.78
in ClC(Cl)(Cl)Cl | -5.45
in ClC(Cl)Cl | -5.32
in ClCCCl | -4.71
in ClCCl | -5.08
in Clc1ccccc1 | -5.21
in FC(F)(F)C(F)(F)C(F)(F)C(F)(F)C(F)(F)C(F)(F)C(F)(F)C(F)(F)F | -3.45
in FC(F)(F)C(F)(F)C(F)(F)C(F)(F)C(F)(F)C(F)(F)F | -3.52
in Fc1c(F)c(F)c(F)c(F)c1F | -4.83
in Fc1ccccc1 | -5.11
in ICI | -3.3
in Ic1ccccc1 | -4.74
in N#CCCCCC#N | -2.96
in NC=O | -1.27
in NCCO | -1.74
in Nc1ccccc1 | -3.52
in O=C1CCCCC1 | -4.63
in O=C1CCCO1 | -3.22
in O=CN1CCOCC1 | -3.04
in OCCCCCO | -3.06
in OCCCCO | -2.87
in OCCCO | -2.59
in OCCOCCO | -2.35
in OCCOCCOCCOCCO | -2.71
in OCc1ccccc1 | -3.81
in S=C=S | -5.53
in c1ccc2ncccc2c1 | -4.22
in c1ccc(COCc2ccccc2)cc1 | -4.28
in c1ccccc1 | -5.25
in c1ccncc1 | -4.49

CC(=O)C(C)(C)C
Conditions | solvation free energy, 298 K [kcal/mol]
in CCCCCC | -4.34
in CCCCCCC | -4.3
in CCCCCCCC | -4.21
in CCCCCCCCCC | -4.15
in O | -3.11

Nc1ncnc2nc[nH]c12
Conditions | solvation free energy, 298 K [kcal/mol]
in C=CCCCCCCC=C | -10.2
in C=CCCCCCCCCCCCCCC | -9.84
in O | -17.4

COC(=O)C(F)(F)F
Conditions | solvation free energy, 298 K [kcal/mol]
in O | -1.1

CCCCC(C)(C)C
Conditions | solvation free energy, 298 K [kcal/mol]
in O | 3.02

Nc1ccc2c(c1)C(=O)c1ccccc1C2=O
Conditions | solvation free energy, 298 K [kcal/mol]
in O | -11.5

CC(C)CC(C)O (stereo not drawn)
Conditions | solvation free energy, 298 K [kcal/mol]
in CCCCCCCC | -4.63
in CCCCCCCCCC | -4.56

CCCCN(CC)C(=O)SCCC
Conditions | solvation free energy, 298 K [kcal/mol]
in O | -3.64

CC1=CCC(=C(C)C)CCC(C)=CCC1
Conditions | solvation free energy, 298 K [kcal/mol]
in O | -0.37

Nc1cccc(Cl)c1
Conditions | solvation free energy, 298 K [kcal/mol]
in O | -5.9

COCc1ccc(C(=O)O)cc1
Conditions | solvation free energy, 298 K [kcal/mol]
in C=CCCCCCCCCCCCCCC | -8.27
in O | -9.89

C=C(CCC=C(C)C)C1CC=C(C)CC1 (stereo not drawn)
Conditions | solvation free energy, 298 K [kcal/mol]
in O | -0.5

CCCCCC(=O)CC(C)=O
Conditions | solvation free energy, 298 K [kcal/mol]
in O | -4.3

C=C(C)c1ccccc1
Conditions | solvation free energy, 298 K [kcal/mol]
in CC(C)=O | -6.37
in O | -1.28

CSC
Conditions | solvation free energy, 298 K [kcal/mol]
in C=C(C)CC(C)(C)C | -3.04
in C=CCCCC | -3.07
in CC(C)CC(C)(C)C | -2.9
in CCCCCC | -2.97
in ClC(Cl)(Cl)Cl | -3.6
in ClC(Cl)Cl | -4.08
in O | -1.5
